System: MV-4-11 cells
Test: Gene expression microarray analysis (Affymetrix PrimeView) and GSEA
Format: cell-based, human
Parameters: RFU PODN (11730768_x_at) / Fold change /veh PODN (11730768_x_at) / RFU LINC00158 (11744669_a_at) / Fold change /veh LINC00158 (11744669_a_at) / RFU DUSP10 (11751237_a_at) / Fold change /veh DUSP10 (11751237_a_at) / RFU ID3 (11757404_x_at) / Fold change /veh ID3 (11757404_x_at) / RFU PLEKHG5 (11737974_s_at) / Fold change /veh PLEKHG5 (11737974_s_at) / RFU LRRC4B (11730491_at) / Fold change /veh LRRC4B (11730491_at) / RFU GIMAP4 (11747438_a_at) / Fold change /veh GIMAP4 (11747438_a_at) / RFU KRT8 (11758183_x_at) / Fold change /veh KRT8 (11758183_x_at) / RFU CNN1 (11734310_a_at) / Fold change /veh CNN1 (11734310_a_at) / RFU VPS37D (11726825_at) / Fold change /veh VPS37D (11726825_at) / RFU C10orf10 (11716522_x_at) / Fold change /veh C10orf10 (11716522_x_at) / RFU KIR2DL2 /// KIR2DL4 /// KIR2DL5A /// KIR2DL5B /// KIR2DS1 /// KIR2DS2 /// KIR2DS3 /// KIR2DS4 /// KIR3DL3 /// KIR3DL3 /// KIR3DS1 (11738374_at) / Fold change /veh KIR2DL2 /// KIR2DL4 /// KIR2DL5A /// KIR2DL5B /// KIR2DS1 /// KIR2DS2 /// KIR2DS3 /// KIR2DS4 /// KIR3DL3 /// KIR3DL3 /// KIR3DS1 (11738374_at) / RFU C1QL1 (11718748_at) / Fold change /veh C1QL1 (11718748_at) / RFU TMPRSS4 (11747572_a_at) / Fold change /veh TMPRSS4 (11747572_a_at) / RFU HAMP (11756126_x_at) / Fold change /veh HAMP (11756126_x_at) / RFU RNFT2 (11725882_a_at) / Fold change /veh RNFT2 (11725882_a_at) / RFU NR4A2 (11747474_a_at) / Fold change /veh NR4A2 (11747474_a_at) / RFU ABCC12 (11746883_a_at) / Fold change /veh ABCC12 (11746883_a_at) / RFU TMEM136 (11760407_x_at) / Fold change /veh TMEM136 (11760407_x_at) / RFU CLDN22 /// WWC2 (11732394_at) / Fold change /veh CLDN22 /// WWC2 (11732394_at) / RFU HLA-DPB1 (11760878_x_at) / Fold change /veh HLA-DPB1 (11760878_x_at) / RFU SPINT1 (11716480_a_at) / Fold change /veh SPINT1 (11716480_a_at) / RFU GAP43 (11754022_s_at) / Fold change /veh GAP43 (11754022_s_at) / RFU A4GNT (11735810_at) / Fold change /veh A4GNT (11735810_at) / RFU PRB3 (11715151_x_at) / Fold change /veh PRB3 (11715151_x_at) / RFU TUBB4B (11761932_at) / Fold change /veh TUBB4B (11761932_at) / RFU CAPN14 (11732068_a_at) / Fold change /veh CAPN14 (11732068_a_at) / RFU TMCC2 (11721928_a_at) / Fold change /veh TMCC2 (11721928_a_at) / RFU IRGQ (11745062_a_at) / Fold change /veh IRGQ (11745062_a_at) / RFU FAM174B (11720279_a_at) / Fold change /veh FAM174B (11720279_a_at) / RFU TMPRSS4 (11748680_a_at) / Fold change /veh TMPRSS4 (11748680_a_at) / RFU FAM212B (11763350_a_at) / Fold change /veh FAM212B (11763350_a_at) / RFU PLEKHG5 (11743358_a_at) / Fold change /veh PLEKHG5 (11743358_a_at) / RFU ZSCAN30 (11745921_a_at) / Fold change /veh ZSCAN30 (11745921_a_at) / RFU CMKLR1 (11741424_a_at) / Fold change /veh CMKLR1 (11741424_a_at) / RFU LOC101060620 /// MAPK8IP1 (11723275_at) / Fold change /veh LOC101060620 /// MAPK8IP1 (11723275_at) / RFU SPTSSB (11747773_x_at) / Fold change /veh SPTSSB (11747773_x_at) / RFU PRSS12 (11739890_at) / Fold change /veh PRSS12 (11739890_at) / RFU BIN1 (11741810_x_at) / Fold change /veh BIN1 (11741810_x_at) / RFU WNT11 (11732464_a_at) / Fold change /veh WNT11 (11732464_a_at) / RFU C10orf10 (11716521_a_at) / Fold change /veh C10orf10 (11716521_a_at) / RFU C5orf56 (11738089_at) / Fold change /veh C5orf56 (11738089_at) / RFU CYB561 (11721691_x_at) / Fold change /veh CYB561 (11721691_x_at) / RFU ANKRD19P (11752326_a_at) / Fold change /veh ANKRD19P (11752326_a_at) / RFU OR2T12 /// OR2T33 /// OR2T8 (11738714_s_at) / Fold change /veh OR2T12 /// OR2T33 /// OR2T8 (11738714_s_at) / RFU VCAN (11748164_a_at) / Fold change /veh VCAN (11748164_a_at) / RFU JSRP1 (11732532_at) / Fold change /veh JSRP1 (11732532_at) / RFU KRTAP10-11 (11738290_x_at) / Fold change /veh KRTAP10-11 (11738290_x_at) / RFU MYO3A (11730013_a_at) / Fold change /veh MYO3A (11730013_a_at) / RFU EBF3 (11725865_a_at) / Fold change /veh EBF3 (11725865_a_at) / RFU CAMK2N1 (11719241_x_at) / Fold change /veh CAMK2N1 (11719241_x_at) / RFU C5orf56 (11738088_a_at) / Fold change /veh C5orf56 (11738088_a_at) / RFU OLFML3 (11715873_a_at) / Fold change /veh OLFML3 (11715873_a_at) / RFU LOC100653217 /// NTM (11731650_a_at) / Fold change /veh LOC100653217 /// NTM (11731650_a_at) / RFU MAPK11 (11762145_a_at) / Fold change /veh MAPK11 (11762145_a_at) / RFU FIZ1 (11724087_x_at) / Fold change /veh FIZ1 (11724087_x_at) / RFU OASL (11726364_x_at) / Fold change /veh OASL (11726364_x_at) / RFU SOX15 (11748057_x_at) / Fold change /veh SOX15 (11748057_x_at) / RFU CD79A (11719716_a_at) / Fold change /veh CD79A (11719716_a_at) / RFU HIST1H1D (11736915_at) / Fold change /veh HIST1H1D (11736915_at) / RFU CASKIN2 (11723855_a_at) / Fold change /veh CASKIN2 (11723855_a_at) / RFU LOC730098 (11760151_x_at) / Fold change /veh LOC730098 (11760151_x_at) / RFU OR4N2 (11742367_at) / Fold change /veh OR4N2 (11742367_at) / RFU PRRT2 (11749266_a_at) / Fold change /veh PRRT2 (11749266_a_at) / RFU SNX32 (11753110_a_at) / Fold change /veh SNX32 (11753110_a_at) / RFU CDHR5 (11726645_a_at) / Fold change /veh CDHR5 (11726645_a_at) / RFU RCAN1 (11760418_a_at) / Fold change /veh RCAN1 (11760418_a_at) / RFU FAM167A (11723789_a_at) / Fold change /veh FAM167A (11723789_a_at) / RFU FAM26E (11764081_at) / Fold change /veh FAM26E (11764081_at) / RFU ISYNA1 (11749810_s_at) / Fold change /veh ISYNA1 (11749810_s_at) / RFU ACY1 (11761880_at) / Fold change /veh ACY1 (11761880_at) / RFU 11764098_at / Fold change /veh 11764098_at / RFU SAMD14 (11745864_x_at) / Fold change /veh SAMD14 (11745864_x_at) / RFU NPB (11741838_a_at) / Fold change /veh NPB (11741838_a_at) / RFU TMPRSS6 (11731388_a_at) / Fold change /veh TMPRSS6 (11731388_a_at) / RFU KRTAP10-2 (11738614_at) / Fold change /veh KRTAP10-2 (11738614_at) / RFU ARHGAP8 /// PRR5-ARHGAP8 (11727945_x_at) / Fold change /veh ARHGAP8 /// PRR5-ARHGAP8 (11727945_x_at) / RFU KRTAP5-7 /// NADSYN1 (11734609_at) / Fold change /veh KRTAP5-7 /// NADSYN1 (11734609_at) / RFU RASL12 (11751679_a_at) / Fold change /veh RASL12 (11751679_a_at) / RFU CDKN2B (11736163_a_at) / Fold change /veh CDKN2B (11736163_a_at) / RFU PRF1 (11729649_at) / Fold change /veh PRF1 (11729649_at) / RFU, ZNF638 /// ZNF638-IT1 / Fold change vs veh, ZNF638 /// ZNF638-IT1 / RFU, PANK3 / Fold change vs veh, PANK3 / RFU, SH3YL1 / Fold change vs veh, SH3YL1 / RFU, ZEB2 / Fold change vs veh, ZEB2 / RFU, NRIP1 / Fold change vs veh, NRIP1 / RFU, PTTG1IP / Fold change vs veh, PTTG1IP / RFU, CAPN2 / Fold change vs veh, CAPN2 / RFU, MED14 / Fold change vs veh, MED14 / RFU, SNORA58 / Fold change vs veh, SNORA58 / RFU, C1orf63 / Fold change vs veh, C1orf63 / RFU, LRRFIP1 / Fold change vs veh, LRRFIP1 / RFU, NDUFAF7 / Fold change vs veh, NDUFAF7 / RFU, SLC12A2 / Fold change vs veh, SLC12A2 / RFU, IBTK / Fold change vs veh, IBTK / RFU, ESF1 / Fold change vs veh, ESF1 / Fold change vs veh, TMEM50B / RFU, TAOK1 / Fold change vs veh, TAOK1 / RFU, ACBD3 / Fold change vs veh, ACBD3 / RFU, TMA16 / Fold change vs veh, TMA16 / RFU, RWDD3 / Fold change vs veh, RWDD3 / RFU, BCAT1 / Fold change vs veh, BCAT1 / RFU, EDEM3 / Fold change vs veh, EDEM3 / RFU, TMEM33 / Fold change vs veh, TMEM33 / RFU, WDR75 / Fold change vs veh, WDR75 / RFU, AHCTF1 / Fold change vs veh, AHCTF1 / RFU, TFRC / Fold change vs veh, TFRC / RFU, ZDHHC17 / Fold change vs veh, ZDHHC17 / RFU, NOM1 / Fold change vs veh, NOM1 / RFU, ARL8B / Fold change vs veh, ARL8B / RFU, ZBTB11 / Fold change vs veh, ZBTB11 / RFU, TAMM41 / Fold change vs veh, TAMM41 / RFU, KIAA1704 /// LOC100996395 / Fold change vs veh, KIAA1704 /// LOC100996395 / RFU, ING1 / Fold change vs veh, ING1 / RFU, TRMT61B / Fold change vs veh, TRMT61B / RFU, FUBP3 / Fold change vs veh, FUBP3 / RFU, TP53 / Fold change vs veh, TP53 / RFU, TNKS2 / Fold change vs veh, TNKS2 / RFU, ZFP14 / Fold change vs veh, ZFP14 / RFU, ACTR2 / Fold change vs veh, ACTR2 / RFU, PPP3R1 / Fold change vs veh, PPP3R1 / RFU, PIK3R1 / Fold change vs veh, PIK3R1 / RFU, HNRNPA1 / Fold change vs veh, HNRNPA1 / RFU, RNF170 / Fold change vs veh, RNF170 / RFU, ZNF28 / Fold change vs veh, ZNF28 / RFU, RNGTT / Fold change vs veh, RNGTT / RFU, OGT / Fold change vs veh, OGT / RFU, BRD1 / Fold change vs veh, BRD1 / RFU, MARS / Fold change vs veh, MARS / RFU, ZNF655 / Fold change vs veh, ZNF655 / RFU, FAHD1 / Fold change vs veh, FAHD1 / RFU, BDP1 / Fold change vs veh, BDP1 / RFU, LRRCC1 / Fold change vs veh, LRRCC1 / RFU, ARID1A / Fold change vs veh, ARID1A / RFU, ZNF146 / Fold change vs veh, ZNF146 / RFU, ZNF330 / Fold change vs veh, ZNF330 / RFU, GPN3 / Fold change vs veh, GPN3 / RFU, C9orf123 / Fold change vs veh, C9orf123 / RFU, N4BP2L2 / Fold change vs veh, N4BP2L2 / RFU, ARFIP1 / Fold change vs veh, ARFIP1 / RFU, FAM179B / Fold change vs veh, FAM179B / RFU, BCL10 / Fold change vs veh, BCL10 / RFU, UHRF1BP1L / Fold change vs veh, UHRF1BP1L / RFU, BET1 / Fold change vs veh, BET1 / RFU, CNOT2 / Fold change vs veh, CNOT2 / RFU, ZNF268 / Fold change vs veh, ZNF268 / Fold change vs veh, ZNF507 / RFU, DGCR2 / Fold change vs veh, DGCR2 / RFU, WDSUB1 / Fold change vs veh, WDSUB1 / Fold change vs veh, HSP90B1 /// MIR3652 / RFU, ADSS / Fold change vs veh, ADSS / RFU, GK / Fold change vs veh, GK / RFU, ZNF148 / Fold change vs veh, ZNF148 / RFU, TAF9 / Fold change vs veh, TAF9 / RFU, SLC1A5 / Fold change vs veh, SLC1A5 / RFU, SLMO2 / Fold change vs veh, SLMO2 / RFU, ABCC4 / Fold change vs veh, ABCC4 / RFU, LOC101060439 /// RAP1B / Fold change vs veh, LOC101060439 /// RAP1B / RFU, RFX7 / Fold change vs veh, RFX7 / RFU, GTPBP10 / Fold change vs veh, GTPBP10 / RFU, CNEP1R1 / Fold change vs veh, CNEP1R1 / RFU, BIVM-ERCC5 /// ERCC5 / Fold change vs veh, BIVM-ERCC5 /// ERCC5 / RFU, ILF3 / Fold change vs veh, ILF3 / RFU 11762660_at / Fold change /veh 11762660_at / RFU VCAN (11757783_s_at) / Fold change /veh VCAN (11757783_s_at) / RFU DDX43 (11728927_at) / Fold change /veh DDX43 (11728927_at) / RFU KRT8 (11758188_x_at) / Fold change /veh KRT8 (11758188_x_at) / RFU NKD1 (11759106_at) / Fold change /veh NKD1 (11759106_at) / RFU SRD5A1 (11742802_a_at) / Fold change /veh SRD5A1 (11742802_a_at) / RFU TPSAB1 /// TPSB2 (11721975_s_at) / Fold change /veh TPSAB1 /// TPSB2 (11721975_s_at) / RFU GSTM3 (11746129_a_at) / Fold change /veh GSTM3 (11746129_a_at) / RFU IL23R (11737362_x_at) / Fold change /veh IL23R (11737362_x_at) / RFU TMEM51 (11727254_a_at) / Fold change /veh TMEM51 (11727254_a_at) / RFU PIWIL2 (11732686_x_at) / Fold change /veh PIWIL2 (11732686_x_at) / RFU ORM1 (11744905_x_at) / Fold change /veh ORM1 (11744905_x_at) / RFU CCDC152 (11743942_at) / Fold change /veh CCDC152 (11743942_at) / RFU ECM1 (11717891_a_at) / Fold change /veh ECM1 (11717891_a_at) / RFU IL23R (11748794_a_at) / Fold change /veh IL23R (11748794_a_at) / RFU TNFAIP8L3 (11732012_x_at) / Fold change /veh TNFAIP8L3 (11732012_x_at) / RFU MBOAT4 (11741988_at) / Fold change /veh MBOAT4 (11741988_at) / RFU 11764193_at / Fold change /veh 11764193_at / RFU TMEM53 (11763286_at) / Fold change /veh TMEM53 (11763286_at) / RFU MAGEB2 (11727129_at) / Fold change /veh MAGEB2 (11727129_at) / RFU TMEM200A (11744735_a_at) / Fold change /veh TMEM200A (11744735_a_at) / RFU CCDC152 (11751479_a_at) / Fold change /veh CCDC152 (11751479_a_at) / RFU FAM211A (11726209_a_at) / Fold change /veh FAM211A (11726209_a_at) / RFU RGS16 (11746705_a_at) / Fold change /veh RGS16 (11746705_a_at) / RFU VCAN (11755009_s_at) / Fold change /veh VCAN (11755009_s_at) / RFU RHOB (11743442_s_at) / Fold change /veh RHOB (11743442_s_at) / RFU RGS16 (11720943_a_at) / Fold change /veh RGS16 (11720943_a_at) / RFU RGS16 (11720944_at) / Fold change /veh RGS16 (11720944_at) / RFU, VPS4B / Fold change vs veh, VPS4B / RFU, CREB1 / Fold change vs veh, CREB1 / RFU, DNAJC13 / Fold change vs veh, DNAJC13 / RFU, GNAQ / Fold change vs veh, GNAQ / RFU, CDK5R1 / Fold change vs veh, CDK5R1 / RFU, ZRANB3 / Fold change vs veh, ZRANB3 / RFU, CUL4A / Fold change vs veh, CUL4A / RFU, CCNY / Fold change vs veh, CCNY / RFU, UFL1 / Fold change vs veh, UFL1 / RFU, COG3 / Fold change vs veh, COG3 / RFU, DIAPH2 / Fold change vs veh, DIAPH2 / RFU, SKA2 / Fold change vs veh, SKA2 / RFU, AFF3 / Fold change vs veh, AFF3 / RFU, LMF1 / Fold change vs veh, LMF1 / RFU, IPO11 / Fold change vs veh, IPO11 / RFU, DFFB / Fold change vs veh, DFFB / RFU, FOXP1 / Fold change vs veh, FOXP1 / RFU, CARD8 / Fold change vs veh, CARD8 / RFU, STRN3 / Fold change vs veh, STRN3 / RFU, ADK / Fold change vs veh, ADK / RFU, RASSF2 / Fold change vs veh, RASSF2 / RFU, WIPF1 / Fold change vs veh, WIPF1 / RFU, LARP1B / Fold change vs veh, LARP1B / RFU, RASA1 / Fold change vs veh, RASA1 / RFU, RB1 / Fold change vs veh, RB1 / RFU, PPFIA1 / Fold change vs veh, PPFIA1 / RFU, MAT2A / Fold change vs veh, MAT2A / RFU, CCT5 / Fold change vs veh, CCT5 / RFU, WDR92 / Fold change vs veh, WDR92 / RFU, CUX1 / Fold change vs veh, CUX1 / RFU, TTC7A / Fold change vs veh, TTC7A / RFU, TMEM135 / Fold change vs veh, TMEM135 / RFU, DEPTOR / Fold change vs veh, DEPTOR / RFU, CPM / Fold change vs veh, CPM / RFU, DNAJB6 / Fold change vs veh, DNAJB6 / RFU, CACNA2D3 / Fold change vs veh, CACNA2D3 / RFU, DTX4 / Fold change vs veh, DTX4 / RFU, TFCP2 / Fold change vs veh, TFCP2 / RFU, GMCL1 /// GMCL1P1 / Fold change vs veh, GMCL1 /// GMCL1P1 / RFU, AEBP2 / Fold change vs veh, AEBP2 / RFU, SNHG1 /// SNORD22 /// SNORD25 /// SNORD26 /// SNORD27 /// SNORD28 /// SNORD29 /// SNORD31 / Fold change vs veh, SNHG1 /// SNORD22 /// SNORD25 /// SNORD26 /// SNORD27 /// SNORD28 /// SNORD29 /// SNORD31 / Fold change (Aza/veh), C12orf56 (ProbeSet 11735607_a_at) / Fold change (ACY-1035/veh), C12orf56 (ProbeSet 11735607_a_at) / Fold change (Aza/veh), FGFR1OP (ProbeSet 11751329_s_at) / Fold change (ACY-1035/veh), FGFR1OP (ProbeSet 11751329_s_at) / Fold change (Aza/veh), VPS36 (ProbeSet 11739960_a_at) / Fold change (ACY-1035/veh), VPS36 (ProbeSet 11739960_a_at) / RFU SYPL1 (11715823_x_at) / Fold change /veh SYPL1 (11715823_x_at) / RFU IGFBP7 (11715501_s_at) / Fold change /veh IGFBP7 (11715501_s_at) / RFU REEP3 (11722064_at) / Fold change /veh REEP3 (11722064_at) / RFU IGLL1 (11728026_x_at) / Fold change /veh IGLL1 (11728026_x_at): dose or concentration left out as unconfirmed
Conditions: ProbeSet 11762504_a_at; LIST D

In the case of `Nc1ncn([C@@H]2O[C@H](CO)[C@@H](O)[C@H]2O)c(=O)n1` [azacitidine], the “Fold change vs veh, ZRANB3” value is reported as 0.82.

Source: publication PMC5218480 (PLoS ONE, 2017)
